Measurements reported in ChEMBL document CHEMBL5143516, “Design, synthesis, and biological evaluation of N-(3-cyano-1H-indol-5/6-yl)-6-oxo-1,6-dihydropyrimidine-4-carboxamides and 5-(6-oxo-1,6-dihydropyrimidin-2-yl)-1H-indole-3-carbonitriles as novel xanthine oxidase inhibitors” (Eur J Med Chem, 2022).
Active and inactive are the calls of the source. No cut-off for these calls is given here.

What was measured:
[1] = biological target: Xanthine dehydrogenase/oxidase (Homo sapiens, UniProt P47989); assay: Inhibition of xanthine oxidase (unknown origin) using xanthine as substrate incubated for 15 mins followed by substrate addition by spectrophotometric analysis
Rattus norvegicus = assay: Anti-hyperuricemic activity against potassium oxonate-induced acute hyperuricemia Sprague-Dawley rat model assessed as reduction in serum uric acid level at 10 mg/kg, po pretreated with potassium oxonate for 1 hr followed by compound treatment and measured after 8 hrs; format: functional, organism-based

Xanthine dehydrogenase/oxidase, sequence (P47989 whole entry): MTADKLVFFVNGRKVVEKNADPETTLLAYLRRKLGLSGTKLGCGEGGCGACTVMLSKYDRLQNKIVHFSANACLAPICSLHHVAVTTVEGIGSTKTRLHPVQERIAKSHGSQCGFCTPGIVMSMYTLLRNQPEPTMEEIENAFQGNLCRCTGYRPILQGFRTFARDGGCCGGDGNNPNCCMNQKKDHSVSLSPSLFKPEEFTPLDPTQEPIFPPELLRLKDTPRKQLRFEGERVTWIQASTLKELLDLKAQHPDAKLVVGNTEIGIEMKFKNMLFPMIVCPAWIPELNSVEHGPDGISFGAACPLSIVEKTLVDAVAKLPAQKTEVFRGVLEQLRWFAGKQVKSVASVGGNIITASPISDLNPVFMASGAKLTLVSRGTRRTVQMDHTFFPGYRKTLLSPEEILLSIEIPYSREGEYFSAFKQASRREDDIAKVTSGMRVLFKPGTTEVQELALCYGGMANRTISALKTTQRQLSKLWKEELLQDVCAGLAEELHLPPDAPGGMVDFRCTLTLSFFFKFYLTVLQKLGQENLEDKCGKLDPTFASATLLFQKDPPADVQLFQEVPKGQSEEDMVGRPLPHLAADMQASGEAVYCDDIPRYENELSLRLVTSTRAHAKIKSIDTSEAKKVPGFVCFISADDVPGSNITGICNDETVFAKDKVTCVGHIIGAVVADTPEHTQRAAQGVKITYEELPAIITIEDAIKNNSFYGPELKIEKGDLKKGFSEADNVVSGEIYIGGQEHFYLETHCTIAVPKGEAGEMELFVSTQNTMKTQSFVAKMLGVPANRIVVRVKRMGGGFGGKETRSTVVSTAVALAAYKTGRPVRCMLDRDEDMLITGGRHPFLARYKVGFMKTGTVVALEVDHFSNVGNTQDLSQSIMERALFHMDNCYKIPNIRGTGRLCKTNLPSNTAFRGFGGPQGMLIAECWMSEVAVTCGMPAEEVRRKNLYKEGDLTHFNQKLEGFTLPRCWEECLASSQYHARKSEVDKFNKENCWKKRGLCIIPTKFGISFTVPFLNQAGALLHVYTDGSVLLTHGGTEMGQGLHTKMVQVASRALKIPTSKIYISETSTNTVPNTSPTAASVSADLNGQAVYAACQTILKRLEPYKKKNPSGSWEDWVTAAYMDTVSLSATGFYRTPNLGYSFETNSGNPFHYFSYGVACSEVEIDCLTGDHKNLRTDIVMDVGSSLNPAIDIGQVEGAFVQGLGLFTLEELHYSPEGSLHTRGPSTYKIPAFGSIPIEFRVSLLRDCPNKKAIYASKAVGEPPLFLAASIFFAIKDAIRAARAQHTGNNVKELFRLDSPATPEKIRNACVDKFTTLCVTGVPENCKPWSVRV

Row | Structure (SMILES) | IC50 [1] | Activity (Rattus norvegicus)
1 | CC(C)(C)c1ccc(Cn2cc(C#N)c3cc(NC(=O)c4cc(=O)[nH]cn4)ccc32)cc1 | > 10 µM | –
2 | CC(C)Cn1cc(C#N)c2ccc(NC(=O)c3cc(=O)[nH]cn3)cc21 | > 10 µM | –
3 | Oc1ncnc2[nH]ncc12 | – | Active
4 | CC(C)n1cc(C#N)c2ccc(NC(=O)c3cc(=O)[nH]cn3)cc21 | > 10 µM | –
5 | C=CCn1cc(C#N)c2ccc(NC(=O)c3cc(=O)[nH]cn3)cc21 | > 10 µM | –
6 | N#Cc1cn(C2CCCC2)c2ccc(NC(=O)c3cc(=O)[nH]cn3)cc12 | – | Active
7 | CC(C)=CCn1cc(C#N)c2ccc(NC(=O)c3cc(=O)[nH]cn3)cc21 | > 10 µM | –
8 | N#Cc1cn(CC2CC2)c2cc(NC(=O)c3cc(=O)[nH]cn3)ccc12 | > 10 µM | –
9 | COc1ccnc(-c2ccc3c(c2)c(C#N)cn3C(C)C)n1 | > 10 µM | –
10 | Cc1nc(C(=O)Nc2ccc3c(C#N)cn(C4CCCC4)c3c2)cc(=O)[nH]1 | > 10 µM | –
11 | CC(C)n1cc(C#N)c2cc(-c3nccc(O)n3)ccc21 | – | Active
12 | N#Cc1cn(C2CCCC2)c2cc(NC(=O)c3cc(=O)[nH]cn3)ccc12 | > 10 µM | –
13 | Cc1nc(-c2ccc(OCC(C)C)c(C#N)c2)sc1C(=O)O [FEBUXOSTAT] | 0.023 µM | Active
